Experiment: Evaluation Example 1: evaluation as blood glucose meter sensor
Procedure: Separately, 100 μL of RO water was added to 7 mg of a glucose dehydrogenase (GDH-FAD) (manufactured by TOYOBO CO., LTD., product No.: GLD-351) to dissolve the enzyme, and thus a GDH solution was produced. Furthermore, 200 μL of RO water was added to 3.5 mg of 1-methoxy-5-methylphenazium methyl sulfate (m-PMS) (manufactured by DOJINDO LABORATORIES) to dissolve the compound, and thus an s-PMS solution was produced. 1 mL of RO water was added to 129 mg of nickel chloride to dissolve the salt, and thus a nickel solution was produced.
The coating liquid obtained as described above was applied on a PET film, and a reagent ribbon 1 was produced. The area of coating was 1.5 mm×75 mm (total coating amount 5.6 μL). This reagent ribbon 1 was cut in the longitudinal direction, and a reagent piece 2 was obtained (1.5 mm×3 mm).
Along the two edges of a PET film 5 that would become one surface of a blood glucose meter sensor, a double-sided tape having a thickness of […] was provided as a spacer. […]
A whole blood sample (Ht40, 100 mg/dL) (hematocrit value 40%, glucose concentration 100 mg/dL) was spotted at the flow channel inlet port of the blood glucose meter sensor thus produced. The whole blood sample (Ht40, 100 mg/dL) was produced as follows: whole blood was collected into a heparin-containing blood sampling tube, the hematocrit value of this whole blood was measured, and the hematocrit value of the whole blood sample was regulated to be Ht40 by adding the blood plasma obtained by separation in advance, or by removing the blood plasma of the whole blood sample, as appropriate. […] The specimen was spotted on the reagent part, and then after 9 seconds, the spectrum was measured using a fiber spectrophotometer. The absorbance at the maximum absorption wavelength was measured using the spectrum measured with each of the blood glucose meter sensors that used various compounds. The absorbance obtainable in the case of measuring the whole blood sample (Ht40, 100 mg/dL) was designated as AbsBG100. […]

COc1ccc2nc(-n3nc(-c4ccc(S(=O)(=O)O)cc4S(=O)(=O)[O-])n[n+]3-c3ccc(OC)c(S(=O)(=O)O)c3)sc2c1 [Example 1]
time to completion of color development (whole blood and aqueous glucose solution, absorbance at 630 nm, FIG. 7): 5 s
absorbance (whole blood and aqueous glucose solutions, 9 seconds from initiation of reaction, FIG. 6): higher than 0.2
color development (ΔAbs=AbsBG100−AbsBG0) relative to WST-4 (650 nm) (whole blood sample Ht40, 100 mg/dL, 9 seconds, FIG. 5): about 3 times

From patent publication US11739083B2, “Disposable sensor chip with reagent including 2-substituted benzothiazolyl-3-substituted phenyl-5-substituted sulfonated phenyl-2H-tetrazolium salt” (TERUMO KABUSHIKI KAISHA, priority 2016, dated 2023)
